# Assay results as given in patent US7547692B2, “Rifamycin analogs and uses thereof” (ActivBiotics Pharma, LLC, priority 2005, dated 2009).
# How the values were obtained:
# H. flu = assay: MIC assay, H. flu; type: cell-based
# E. coli = assay: MIC assay, E. coli; type: cell-based
# S. pneumo. = assay: MIC assay, S. pneumo.; type: cell-based
# E. faecalis = assay: MIC assay, E. faecalis; type: cell-based
# S. aureus = assay: MIC assay, S. aureus; type: cell-based
Compound,MIC H. flu (H. flu) [µg/mL],MIC E. coli (E. coli) [µg/mL],MIC S. pneumo. (S. pneumo.) [µg/mL],MIC E. faecalis (E. faecalis) [µg/mL],MIC S. aureus (S. aureus) [µg/mL],melting point [°C]
3′-hydroxy-5′-(3-hydroxy-1-azetidinyl)benzoxazinorifamycin [Compound 1],0.12,4,0.00012,0.12,0.002,–
CO[C@H]1/C=C/OC2(C)Oc3c(C)c(O)c4c(=O)c(c5oc6cc(N7CC8CC7CN8)cc(O)c6nc-5c4c3C2=O)NC(=O)/C(C)=C\C=C\[C@H](C)[C@H](O)[C@@H](C)[C@@H](O)[C@@H](C)[C@H](OC(C)=O)[C@@H]1C (some centres unmarked) [Compound 3],–,–,–,–,–,> 330
CO[C@H]1/C=C/OC2(C)Oc3c(C)c(O)c4c(=O)c(c5oc6cc(N7CC8CCC7CN8)cc(O)c6nc-5c4c3C2=O)NC(=O)/C(C)=C\C=C\[C@H](C)[C@H](O)[C@@H](C)[C@@H](O)[C@@H](C)[C@H](OC(C)=O)[C@@H]1C (some centres unmarked) [Compound 4],–,–,–,–,–,> 300
COC1C=COC2(C)Oc3c(C)c(O)c4c(=O)c(c5oc6cc(N7CC8CCC(C7)N8)cc(O)c6nc-5c4c3C2=O)NC(=O)C(C)=CC=CC(C)C(O)C(C)C(O)C(C)C(OC(C)=O)C1C (centres unmarked) [Compound 9],2,>8,0.00012,1,0.008,–
COC1C=COC2(C)Oc3c(C)c(O)c4c(=O)c(c5oc6cc(N7CC8CCC(C7)N8)cc(O)c6nc-5c4c3C2=O)NC(=O)C(C)=CC=CC(C)C(O)C(C)C(O)C(C)C(O)C1C (centres unmarked) [Compound 10],0.25,4,0.001,0.12,0.015,–
